In patent publication US12655116B2, “Substituted isophthalic acid diamides” (Bayer Aktiengesellschaft, priority 2020, dated 2026):

Experiments:
[1] = system: CYPES; assay: Post-emergence herbicidal action against CYPES; type: in vivo, Cyperus esculentus; conditions: visual assessment about 3 weeks after treatment, 100% = plants have died, 0% = like control plants
Description: Seeds of monocotyledonous and dicotyledonous weed and crop plants are laid out in sandy loam soil in wood-fiber pots, covered with soil and cultivated in a greenhouse under good growth conditions. 2 to 3 weeks after sowing, the test plants are treated at the one-leaf stage. The compounds of the invention, formulated in the form of wettable powders (WP) or as emulsion concentrates (EC), are then sprayed onto the green parts of the plants in the form of an aqueous suspension or emulsion at a water application rate equivalent to 600 to 800 l/ha, with addition of 0.2% wetting agent. After the test plants have been left to stand in the greenhouse under optimal growth conditions for about 3 weeks, the action of the preparations is assessed visually in comparison to untreated controls (herbicidal action in percent (%): 100% activity=the plants have died, 0% activity=like control plants). […] The tables below illustrate, in an illustrative manner, the post-emergence herbicidal action of the compounds of the invention, the herbicidal activity being stated in percent.

[2] = system: harmful plants; assay: Comparative experiments: herbicidal pre-emergence action versus compounds known from D1 (WO 2012/028579 A1); type: in vivo; design: key to Herbicidal action against ALOMY / Herbicidal action against AVEFA / Herbicidal action against SETVI / Herbicidal action against AMARE / Herbicidal action against STEME / Herbicidal action against VIOTR / Herbicidal action against HORMU / Herbicidal action against MATIN / Herbicidal action against ABUTH: % herbicidal activity: 0 = like control, 100 = plants died
Excerpt: Seeds of monocotyledonous and dicotyledonous weed plants and crop plants are laid out in sandy loam soil in wood-fiber pots and covered with soil. The compounds of the invention, formulated in the form of wettable powders (WP) or as emulsion concentrates (EC), are then applied to the surface of the covering soil in the form of an aqueous suspension or emulsion at a water application rate equivalent to 600 to 800 l/ha, with addition of 0.2% wetting agent. After the treatment, the pots are placed in a greenhouse and kept under good growth conditions for the trial plants. The damage to the test plants is scored visually after a test period of 3 weeks by comparison with untreated controls (herbicidal activity in percent (%): 100% activity=the plants have died, 0% activity=like control plants). […] The tables below illustrate, in an illustrative manner, the post-emergence herbicidal action of the compounds of the invention, the herbicidal activity being stated in percent. In the experiments that follow, herbicidal action of numerous inventive compounds and the structurally closest compounds known from D1 (WO 2012/028579 A1) were compared under the above-specified conditions by the pre-emergence and post-emergence method. The example numbers given in the tables relate to the compounds disclosed in the respective documents.

| SMILES | Post-emergence action at 80 g/ha against CYPES in % [1] | Herbicidal action against ABUTH ([2]; 20 g a.i./ha) | Herbicidal action against AVEFA ([2]; 20 g a.i./ha) | Herbicidal action against MATIN ([2]; 20 g a.i./ha) | Herbicidal action against VIOTR ([2]; 20 g a.i./ha) | Herbicidal action against ALOMY ([2]; 80 g a.i./ha) | Herbicidal action against AVEFA ([2]; 80 g a.i./ha) | Herbicidal action against STEME ([2]; 80 g a.i./ha) | Herbicidal action against VIOTR ([2]; 80 g a.i./ha) | Herbicidal action against SETVI ([2]; 80 g a.i./ha) | also measured |
| --- | --- | --- | --- | --- | --- | --- | --- | --- | --- | --- | --- |
| CNC(=O)c1c(C(F)(F)F)ccc(C(=O)Nc2nnnn2C)c1Cl [Example 1-129] | 80% | 100 | 100 | 100 | 100 | 100 | 100 | 100 | 100 |  | Herbicidal action against AMARE ([2]; 20 g a.i./ha): 100; Herbicidal action against STEME ([2]; 20 g a.i./ha): 100; Herbicidal action against ABUTH ([2]; 80 g a.i./ha): 100; Herbicidal action against MATIN ([2]; 80 g a.i./ha): 100 |
| CNC(=O)c1c(C(F)F)ccc(C(=O)Nc2nnnn2C)c1Cl [Example 1-147] |  |  |  |  |  | 90 | 100 | 100 | 100 | 100 | Herbicidal action against AMARE ([2]; 80 g a.i./ha): 100 |
| Cn1nnnc1NC(=O)c1ccc(C(F)(F)F)c(C(N)=O)c1Cl [Example 1-338] | 90% |  |  |  |  |  |  |  |  |  | Post-emergence action at 20 g/ha against CYPES in % ([1]; 20 g/ha): 80% |
| CCn1nnnc1NC(=O)c1ccc(C(F)(F)F)c(C(=O)NC)c1Cl [Example 2-129] | 90% | 100 | 100 | 100 | 100 |  |  |  |  |  | Herbicidal action against POLCO ([2]; 20 g a.i./ha, POLCO): 100; Herbicidal action against SETVI ([2]; 20 g a.i./ha): 100 |
| CCn1nnnc1NC(=O)c1ccc(C(F)F)c(C(=O)NC)c1Cl [Example 2-147] |  |  |  |  |  | 90 | 100 | 70 |  | 100 | Herbicidal action against HORMU ([2]; 80 g a.i./ha, HORMU): 90 |
